In patent publication US8431748B2, “Low protonation constant hydroxy acids” (BWE I Malmo AB, priority 2006, dated 2013):

Tests used:
[1] = Solubility of the product in solvents; assay type: physicochemical
[2] = pKa determination by titration with aqueous potassium hydroxide
Description: The pKa value was taken as the pH at ½-equivalent volume of potassium hydroxide and corrected against a standard curve prepared from measurements on maleic acid, succinic acid, methacrylic acid, propanoic acid and pentanoic acid.

[3] = Effect of hydrogen peroxide oxidation of thioether sulphur on pKa; assay type: physicochemical; details: 0.82-2.17 eq. H2O2 (30%), after 2 days at room temperature, average pKa of oxidation products
Description: Five aqueous (35 ml) solutions of GALA (approx 2 mmol) was prepared) and varying amounts of hydrogen peroxide (0.82-2.17 eq., 30%) added. The average pKa value of the oxidation products was assessed after 2 days at room temperature, and the relation between pKa and mol ratio H2O2/S can be seen in FIG. 1.

[4] = in water, pH at 1/2-equivalent volume of 0.1 M KOH, corrected against a standard curve

| pKa ([2]; water) | SMILES | solubility in hexane [1] | solubility in methanol [1] | pKa [2, 4] | other results |
| --- | --- | --- | --- | --- | --- |
| – | CCC(CO)(CO)COCCCSC(C)C(=O)O (stereo not drawn) [TELA, Trimethyolpropane Monoallyl Ether-Thiolactic Acid Adduct] | not soluble | soluble | – | solubility in toluene ([1]; toluene): soluble |
| 4.55 | CCC(CO)(CO)C(=O)O [DMBA, 2,2-bis-(hydroxymethyl)butanoic acid, reference compound] | – | – | – | – |
| – | O=C(O)CSCCCOCC(O)CO (stereo not drawn) [GAMA, Glycerol 1-Monoallyl Ether-Mercaptoacetic Acid] | – | – | 3.60 | – |
| 4.64 | CC(CO)(CO)C(=O)O [DMPA, 2,2-bis-(hydroxymethyl)propanoic acid, reference compound] | – | – | – | – |
| – | CC(SCCCOCC(O)CO)C(=O)O (stereo not drawn) [GALA, Glycerol Monoallyl Ether-Thiolactic Acid Adduct] | not soluble | soluble | 3.67 | reduction of pKa value by addition of hydrogen peroxide [3]: approximately 1 unit; solubility in ethanol/toluene (1/4) ([1]; ethanol/toluene (1/4)): soluble; solubility in water ([1]; water): soluble |
